# Laboratory results as given in US8093211B2, “Methods and pharmaceutical compositions for healing wounds” (Bar-Ilan University, priority 2001, dated 2012).
# No end group written: not given here. *: point of attachment. Myristoyl = CCCCCCCCCCCCCC(=O)*
# Assays:
# [1] = tested on: over-expressed PKC isoforms; test: Translocation of over-expressed PKC isoforms by PKC activator in infected keratinocytes; type: cell-based, mouse; conditions: stimulated for 30 minutes, 24 hours following infection
# Protocol: Four day old primary keratinocytes were infected for 1 hour with isoform specific recombinant PKC adenoviruses. Twenty four hours following infection, cells were either untreated (C) or stimulated with bryostatin 1 (B) for 30 minutes, and fractionated. Protein samples were subjected to Western blotting and analyzed using isoform specific anti-PKC antibodies.
# Preparation of cell extracts and Western blot analysis: For crude membrane fractions, whole cell lysates were prepared by scraping cells into PBS containing 10 μg/ml aprotinin, 10 μg/ml leupeptin, 2 μg/ml pepstatin, 1 mM PMSF, 10 mM EDTA, 200 μM NaVO4 and 10 mM NaF. After homogenization and 4 freeze/thaw cycles, lysates were spun down at 4° C. for 20 minutes in a microcentrifuge at maximal speed. The supernatant containing the soluble cytosol protein fraction was transferred to another tube. The pellet was resuspended in 250 μl PBS containing 1% Triton X-100 with protease and phosphatase inhibitors, incubated for 30 minutes at 4° C. and spun down in a microcentrifuge at maximal speed at 4° C. The supernatant contains the membrane fraction. Protein concentrations were measured using a modified Lowery assay (Bio-Rad DC Protein Assay Kit). Western blot analysis of cellular protein fractions was carried out as described (6). […]
# [2] = tested on: STAT3; test: Insulin induced STAT3 activation and nuclear translocation in keratinocytes (immunofluorescence); type: cell-based, murine; conditions: 5 μM Rottlerin for 7 minutes, followed by 10^−7 M insulin for 5 minutes
# Protocol: Primary keratinocytes were plated on glass slides and maintained for 5 days in low Ca^++ medium (0.05 mmol/l) until they reached 80% confluency. Cells were untreated (Cont, upper panel) or pre-treated with 5 μM Rottlerin for 7 minutes (R, lower panel), followed by 10^−7 M insulin for 5 minutes (Ins). Cells were fixed by methanol, washed and air-dried. Cultures were analyzed by immunofluorescence using antiphospho-Tyr-705-STAT3 antibody, followed by FITC conjugated secondary antibody. Cells were scanned by confocal microscopy.
# Immunofluorescence: Primary keratinocytes were plated on laminin 5 coated glass slides. Two days old keratinocytes were infected with PKC adenovirus for one hour, washed twice with PBS and maintained in culture in low Ca^2+ EMEM. Twenty four hours post infection, cells were fixed in 4% paraformaldehyde for 30 minutes followed by permeabilization with 0.2% Triton for 5 minutes. For analysis, control and PKC infected keratinocytes were rinsed with PBS and incubated overnight at 4° C. with PKC antibodies (Santa Cruz) diluted in 1% BSA in PBS. […] Following two washes in PBS, slides were mounted with glycerol buffer containing 1% of p-phenylenediamine (Sigma) and fluorescence examined by laser scanning confocal imaging microscopy (MRC 1024, Bio-Rad, UK).
# [3] = tested on: incision wounds on the back of C57BL mice; test: Single vs. multiple applications of insulin for wound healing in vivo (Example 20)
# Protocol: Wounds were effected on the back of 8-10 week old C57BL mice by incision and were treated with different concentrations and frequencies of insulin applications (i.e., seven daily repeat applications vs. a single application). The treated mice were sacrificed seven days after wounding and the areas of treated wounds were measured. The results are presented as mm^2 wound area and each bar represents the mean of six replications±standard deviation (p<0.005).
# Wounds were effected on the back of 8-10 week old C57BL mice by incision and were treated with different concentrations of insulin and frequencies of applications (i.e., seven daily repeat applications vs. a single application). Histological wound sections were performed seven days after wounding and were analyzed for epidermal and dermal closure (wound contraction). Epidermal closure was assessed by Keratin 14 (K14) antibody staining (left panel) and was considered positive if the wound was stained positive across the entire gap. The dermal closure was considered positive if both dermal wound sides could be observed under a light microscope in a single field at ×10 magnification (right panel). The results are presented as percent of wound closure over control and each bar represents the mean of six replications.
# Wounds were effected on the back of 8-10 week old C57BL mice by incision and were treated as follows: (i) insulin 0.1 μM applied daily for 7 days; (ii) insulin 1 μM applied daily for 7 days; (iii) insulin 10 μM applied daily for 7 days; (iv) insulin 1 μM applied once 4 days after wounding; and (v) vehicle (PBS) control applied daily for 7 days. All mice were sacrificed seven days after wounding and their open wound areas were measured.
# Since the observed wounds were covered with a scar tissue it was difficult to correctly assess the actual closure of the wound and the formation of reconstructed epidermis. Therefore the effects of insulin on epidermal and dermal closure of wounds tissue were determined by histological parameters. Epidemial closure of wounds was determined by staining wound sections with Keratin 14 antibody (K14, Babco-Convance, Richmond, Calif., USA) which highlighted the formation of basal cells at the wound gap. Dermal closure of wounds was considered positive if both wound sides the dermis could be observed in a single field observed under a light microscope at ×10 magnification.
# [4] = tested on: PKCs α, ε, η, or ζ; test: Kinase activity of other PKC isoforms after insulin stimulation of keratinocytes; type: cell-based, murine; conditions: up to 30 minutes following insulin stimulation
# Protocol: (§1) PKC activity: Specific PKC activity was determined in freshly prepared immunoprecipitates from keratinocyte cultures following appropriate treatments. These lysates were prepared in RIPA buffer without NaF. Activity was measured with the use of the SignaTECT Protein Kinase C Assay System (Promega, Madison, Wis., USA) according to the manufacturer's instructions. PKCα pseudosubstrate was used as the substrate in these studies.
# (§2) In order to determine whether the translocation of PKCδ is sufficient for activation, kinase activity of PKC immunoprecipitates from the cytoplasm and membrane fractions of insulin and IGF1 treated keratinocytes was measured.
# [5] = tested on: PKCδ; test: Translocation of PKCδ from cytosol to membrane in proliferating keratinocytes (Western blot); type: cell-based, murine; conditions: 10^−7 M insulin or 10^−8 M IGF1; as early as 5 minutes following stimulation
# Protocol: Primary keratinocytes were isolated and plated as described in the Examples section that follows. Proliferating keratinocytes were maintained for five days in low Ca^2+ medium (0.05 mM) until they reached 80% confluency. Cells were stimulated with 10^−7 M insulin (Ins) or 10^−8 M IGF1 (IGF) for 15 minutes. Cells were lysed, as described, and 20 μg of membrane or cytosol extracts of stimulated and control unstimulated (Cont) cells were subjected to SDS-PAGE and transfer. Blots were probed with specific polyclonal antibodies to each PKC isoform.
# Isolation and culture of murine keratinocytes: Primary keratinocytes were isolated from newborn skin as previously described (18). […]
# Preparation of cell extracts and Western blot analysis: For crude membrane fractions, whole cell lysates were prepared by scraping cells into PBS containing 10 μg/ml aprotinin, 10 μg/ml leupeptin, 2 μg/ml pepstatin, 1 mM PMSF, 10 mM EDTA, 200 μM NaVO4 and 10 mM NaF. […] Protein concentrations were measured using a modified Lowery assay (Bio-Rad DC Protein Assay Kit). […]
# In order to try and identify the endogenous factors, which activate specific PKC isoforms regulating skin proliferation, the ability of several growth factors which are known to promote keratinocyte proliferation including: EGF, KGF, insulin, PDGF and IGF1 to activate specific PKC isoforms in a growth dependent manner was assessed. […]
# [6] = tested on: PKCδ; test: PKCδ kinase activity of immunoprecipitates from stimulated keratinocytes; type: cell-based, murine; conditions: 10^−7 M insulin or 10^−8 M IGF1 for 1, 15 or 30 minutes
# Protocol: To determine PKCδ activity, five-day keratinocyte cultures were stimulated with 10^−7 M insulin (Ins) or 10^−8 M IGF1 (IGF) for the designated times (1, 15, or 30 minutes). PKCδ was immunoprecipitated from membrane (blue bars, mem) and cytosol (purple bars, cyto) fractions using specific anti-PKCδ antibody. PKCδ immunoprecipitates were analyzed for PKC activity utilizing an in vitro kinase assay as described in experimental procedures. Each bar represents the mean±SE of 3 determinations in 3 separate experiments. Values are expressed as pmol ATP/dish/min.
# as §1, §2
# [7] = tested on: primary keratinocytes; test: Keratinocyte proliferation by [3H]thymidine incorporation; type: cell-based, murine; conditions: for concentration of maximal induction of thymidine incorporation: stimulated for 24 hours, proliferating keratinocytes in low Ca2+
# Protocol: Proliferating keratinocytes were maintained for five days in low Ca^2+ medium (0.05 mM) until they reached 80% confluence. (A) Five-day keratinocyte cultures were stimulated for 24 hours with insulin or IGF1 at the designated concentrations. (B) In parallel, keratinocytes were stimulated with 10^−7 M insulin (Ins) and increasing doses of IGF1 (IGF). At each concentration the right column (striped bar) represents proliferation observed when both hormones were added together. […] Thymidine incorporation was measured as described in experimental procedures. The results shown are representative of 6 experiments. Each bar represents the mean±SE of 3 determinations expressed as percent above control unstimulated keratinocytes.
# Non-infected (light blue bars), or cells over-expressing WTPKCδ (dark blue bars) or DNPKCδ (slashed blue bars) were treated for 24 hours with 10^−7 M insulin (Ins), 10^−8 M IGF1 (IGF) or both (Ins+IGF). Thymidine incorporation was measured as described in experimental procedures. Each bar represents the mean±SE of 3 determinations in 3 experiments done on separate cultures. Values are expressed as percent of control, unstimulated cells from the same culture in each experiment.
# Isolation and culture of murine keratinocytes: Primary keratinocytes were isolated from newborn skin as previously described (18). Keratinocytes were cultured in Eagle's Minimal Essential Medium (EMEM) containing 8% Chelex (Chelex-100, BioRad) treated fetal bovine serum. To maintain a proliferative basal cell phenotype, the final Ca^2+ concentration was adjusted to 0.05 mM. Experiments were performed five to seven days after plating.
# Cell proliferaion: Cell proliferation was measured by [^3H]thymidine incorporation in 24 well plates. Cells were pulsed with [^3H]thymidine (1 μCi/ml) overnight. After incubation, cells were washed five times with PBS and 5% TCA was added into each well for 30 minutes. The solution was removed and cells were solubilized in 1% Triton X-100. The labeled thymidine incorporated into cells was counted in a ^3H-window of a Tricarb liquid scintillation counter.
# [8] = tested on: incision wounds on the back of C57BL mice; test: Effect of PKCα inhibitor and insulin on wound inflammation in vivo (Example 23); conditions: for Incidence of severe inflammation I wound (%): treated daily for 7 days, 1 μM of each agent, observed seven days after wounding
# Protocol: Late and severe inflammatory response in wounds may suppress the process of healing, thus preventing such inflammation from development may promote the wound healing process. Accordingly, the effect of PKCα inhibitor and insulin on wound inflammation was tested in the following experiment. Wounds were effected on the back of C57BL mice by incision and were treated daily for 7 days with: (i) PBS, control; (ii) 1 μM of a PKCα inhibitor (pseudosubstrate myristolated; Calibiochem, USA); (iii) 1 μM insulin (Eli Lilly, USA); or a mixture of 1 μM PKCα inhibitor and 1 μM insulin.
compound,measurement,setting,value
CCC/C=C/C=C/C(=O)O[C@H]1/C(=C/C(=O)OC)C[C@H]2C[C@H]([C@@H](C)O)OC(=O)C[C@H](O)C[C@@H]3C[C@H](OC(C)=O)C(C)(C)[C@](O)(C[C@@H]4C/C(=C/C(=O)OC)C[C@H](/C=C/C(C)(C)[C@]1(O)O2)O4)O3 [bryostatin 1],translocation of PKCα and δ proteins to the membrane fraction,[1],induced translocation
same,translocation of PKCη and ζ isoforms to the membrane fraction,[1],lesser effect
CC(=O)c1c(O)c(C)c(O)c(Cc2c(O)c3c(c(C(=O)/C=C/c4ccccc4)c2O)OC(C)(C)C=C3)c1O [rottlerin],activation and nuclear translocation of STAT3 after insulin,[2],inhibits activation as well as nuclear translocation of STAT3
"insulin: humulinR-recombinant human insulin, purchased from Eli Lilly",open wound area,"[3]; 1 μM applied once 4 days after wounding, compared with seven repeat daily applications at 1 μM",substantially more effective
same,open wound area,"[3]; 1 μM daily for 7 days, compared with daily 0.1 μM or 10 μM",significantly more effective
same,epidermal and dermal closure (histology),"[3]; 1 μM daily, compared with daily 0.1 μM or 10 μM",significantly more effective
same,epidermal and dermal closure (histology),"[3]; all insulin treatments (0.1, 1, 10 μM daily; 1 μM single)",effectively promoted epidermal and dermal closure
same,epidermal and dermal closure (histology),"[3]; single application 1 μM, compared with seven repeat daily applications at 1 μM",substantially more effective
same,"activation of PKCs α, ε, η, or ζ",[4],no activation
same,translocation of PKCδ between cytoplasm and membrane fractions,[5],specifically induced translocation of PKCδ from the cytoplasm to the membranal fractions
same,activity of PKCδ in the membrane fraction,[6],increased activity of PKCδ
same,concentration of maximal induction of thymidine incorporation,[7],10^−7 M
same,increase of thymidine incorporation over untreated cells,"[7]; untransfected cells, 10^−7 M insulin for 24 hours",two to three fold
same,effect on severe wound inflammation,[8]; 1 μM daily for 7 days,not effective
same,Incidence of severe inflammation I wound (%),[8],56.0%
"IGF1: growth factor IGF1, a gift from Cytolab (Israel)",translocation of PKCδ between cytoplasm and membrane fractions,[5],reduced PKCδ expression in the membrane
same,activity of PKCδ in the membrane fraction,[6],insulin but not IGF1 increased activity of PKCδ
same,"maximal stimulation of thymidine incorporation, compared at each concentration",[7]; 24 hours,greater than that by insulin
same,concentration of maximal induction of thymidine incorporation,[7],10^−8 M
"PKCα inhibitor: PKCα inhibitor of SEQ ID NO:1, PKCα pseudosubstrate myristoylated; Calbiochem (Myristoyl-FARKGALRQ)","decrease of severe wound inflammation incidence, as compared to control",[8]; 1 μM daily for 7 days,33.3%
same,Incidence of severe inflammation I wound (%),[8],40.0%
